In patent publication US20240109917A1 (ACTELION PHARMACEUTICALS LTD, priority 2020, published 2024):
Where two headings read alike, the source gives them in different places.

Key:
[1] = molecular target: His6-TEV-PDGFRβ (557-1016) (Homo sapiens (Human), UniProt P09619); assay: PDGFRβ HTRF Assay; format: biochemical; settings: read-out: PDGFR HTRF IC50
How it was run: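 HTRF KinEASE-TK readout (665/620 nm ratio) of TK-biotin substrate phosphorylation by His-tagged PDGFRβ kinase domain. Enzyme and inhibitor preincubated 30 min, then ATP/substrate added for 3 h at room temperature before 60 min EDTA quench/detection.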

[2] = molecular target: Tb-labeled inactive PDGFRβ (Homo sapiens (Human), UniProt P09619); assay: PDGFRβ LanthaScreen Assay; format: binding; settings: read-out: PDGFR Lantha IC50
PDGFRβ = PDGFRβ (Rattus norvegicus (Rat), UniProt Q05030); assay: PDGFRβ Cellular Assay (PDGFRb P-Y751 HTRF in A10 cells stimulated with PDGF-BB); format: cell-based
How it was run: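 Phospho-Y751 PDGFRβ was measured by HTRF in lysates of A10 rat cells. Cells received compound for 3 hours before PDGF-BB stimulation (100 ng/mL working stock).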

Sequence of PDGFRβ (Q05030 32-1097): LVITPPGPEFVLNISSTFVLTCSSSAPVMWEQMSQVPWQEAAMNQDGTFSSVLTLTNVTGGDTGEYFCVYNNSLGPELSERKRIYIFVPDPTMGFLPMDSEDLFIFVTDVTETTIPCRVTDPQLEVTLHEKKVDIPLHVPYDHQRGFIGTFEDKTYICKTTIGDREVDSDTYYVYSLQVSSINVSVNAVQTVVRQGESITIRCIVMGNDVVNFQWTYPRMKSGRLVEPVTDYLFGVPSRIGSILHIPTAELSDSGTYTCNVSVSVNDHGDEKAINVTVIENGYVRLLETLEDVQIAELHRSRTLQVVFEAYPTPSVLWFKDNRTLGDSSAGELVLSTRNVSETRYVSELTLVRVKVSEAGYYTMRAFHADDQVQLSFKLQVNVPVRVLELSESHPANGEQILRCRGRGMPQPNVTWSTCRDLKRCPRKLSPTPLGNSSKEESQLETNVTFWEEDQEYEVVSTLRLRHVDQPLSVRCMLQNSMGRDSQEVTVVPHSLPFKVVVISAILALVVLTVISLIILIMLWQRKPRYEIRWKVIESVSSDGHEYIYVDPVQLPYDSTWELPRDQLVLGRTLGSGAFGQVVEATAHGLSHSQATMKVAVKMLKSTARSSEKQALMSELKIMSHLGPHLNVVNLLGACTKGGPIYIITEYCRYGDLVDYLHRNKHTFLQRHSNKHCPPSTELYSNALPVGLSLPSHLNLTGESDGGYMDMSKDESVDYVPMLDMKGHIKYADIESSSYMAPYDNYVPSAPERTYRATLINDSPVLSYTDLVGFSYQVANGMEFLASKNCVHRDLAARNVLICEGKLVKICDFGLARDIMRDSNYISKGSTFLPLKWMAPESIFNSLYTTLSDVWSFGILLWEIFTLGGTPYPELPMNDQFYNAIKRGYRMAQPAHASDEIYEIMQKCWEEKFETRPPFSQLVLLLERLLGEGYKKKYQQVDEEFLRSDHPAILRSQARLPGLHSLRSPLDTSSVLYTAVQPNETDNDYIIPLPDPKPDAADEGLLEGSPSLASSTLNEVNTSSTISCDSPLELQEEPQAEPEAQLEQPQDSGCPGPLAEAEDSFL
Sequence of Tb-labeled inactive PDGFRβ (P09619 33-1106): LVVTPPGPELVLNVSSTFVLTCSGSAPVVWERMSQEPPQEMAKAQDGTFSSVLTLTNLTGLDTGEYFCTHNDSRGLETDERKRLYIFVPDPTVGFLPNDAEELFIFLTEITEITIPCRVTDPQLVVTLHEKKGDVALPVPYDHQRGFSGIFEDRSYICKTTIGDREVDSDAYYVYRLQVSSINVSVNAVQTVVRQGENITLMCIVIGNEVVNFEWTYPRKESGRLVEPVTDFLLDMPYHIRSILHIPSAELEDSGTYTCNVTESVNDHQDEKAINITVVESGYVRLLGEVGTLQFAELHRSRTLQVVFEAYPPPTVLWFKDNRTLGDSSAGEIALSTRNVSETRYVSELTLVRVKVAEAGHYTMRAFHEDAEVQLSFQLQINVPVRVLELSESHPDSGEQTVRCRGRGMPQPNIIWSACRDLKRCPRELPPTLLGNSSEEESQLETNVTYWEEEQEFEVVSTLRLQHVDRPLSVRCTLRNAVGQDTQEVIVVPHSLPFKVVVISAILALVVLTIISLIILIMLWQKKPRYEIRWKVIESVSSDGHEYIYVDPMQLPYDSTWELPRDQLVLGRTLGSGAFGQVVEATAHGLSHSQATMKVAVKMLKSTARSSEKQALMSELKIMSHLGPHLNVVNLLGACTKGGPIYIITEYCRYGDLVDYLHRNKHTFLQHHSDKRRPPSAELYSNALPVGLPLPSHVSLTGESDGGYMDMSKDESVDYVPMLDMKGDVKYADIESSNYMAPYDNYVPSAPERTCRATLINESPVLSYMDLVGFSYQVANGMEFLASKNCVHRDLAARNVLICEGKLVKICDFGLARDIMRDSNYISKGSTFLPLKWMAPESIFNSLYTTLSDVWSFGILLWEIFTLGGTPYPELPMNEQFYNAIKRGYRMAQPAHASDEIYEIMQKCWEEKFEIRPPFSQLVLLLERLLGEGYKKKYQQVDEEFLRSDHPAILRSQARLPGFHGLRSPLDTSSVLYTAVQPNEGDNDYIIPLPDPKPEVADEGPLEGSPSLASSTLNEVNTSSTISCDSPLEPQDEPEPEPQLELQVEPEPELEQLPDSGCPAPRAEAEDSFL
Sequence of His6-TEV-PDGFRβ (557-1016) (P09619 557-1016): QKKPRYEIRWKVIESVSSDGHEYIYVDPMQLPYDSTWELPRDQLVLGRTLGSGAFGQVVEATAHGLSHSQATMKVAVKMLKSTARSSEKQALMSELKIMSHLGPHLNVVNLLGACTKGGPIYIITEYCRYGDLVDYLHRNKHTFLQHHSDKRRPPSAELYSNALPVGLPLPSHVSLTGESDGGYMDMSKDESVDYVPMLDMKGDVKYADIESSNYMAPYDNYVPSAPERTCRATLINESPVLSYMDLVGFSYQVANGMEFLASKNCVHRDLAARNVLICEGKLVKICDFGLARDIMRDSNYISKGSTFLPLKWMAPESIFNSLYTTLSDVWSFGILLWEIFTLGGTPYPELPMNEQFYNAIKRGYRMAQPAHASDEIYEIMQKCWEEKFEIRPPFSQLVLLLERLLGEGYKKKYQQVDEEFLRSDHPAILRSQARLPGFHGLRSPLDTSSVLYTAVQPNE

Compound | IC50 [1] [nM] | IC50 [2] [nM] | IC50 (PDGFRβ; read-out: PDGFR Cellular IC50) [nM] | IC50 (PDGFRβ; PDGFR Cellular IC50) [nM]
Cc1ncc(NC(=O)CN2CCCCCC2)cc1NC(=O)c1cnn2cc(-c3cnn4c3OCCC4)sc12 [Example 420, N-(5-(2-(azepan-1-yl)acetamido)-2-methylpyridin-3-yl)-2-(6,7-dihydro-5H-pyrazolo[5,1-b][1,3]oxazin-3-yl)pyrazolo[5,1-b]thiazole-7-carboxamide] | 0.2 | 2.1 | 2.1 | 
Cc1ncc(NC(=O)CNC2CCCC2)cc1NC(=O)c1cnn2cc(-c3cnn4c3OCCC4)sc12 [Example 421, N-(5-(2-(cyclopentylamino)acetamido)-2-methylpyridin-3-yl)-2-(6,7-dihydro-5H-pyrazolo[5,1-b][1,3]oxazin-3-yl)pyrazolo[5,1-b]thiazole-7-carboxamide] | 0.2 | 2 | 6.2 | 
Cc1ncc(NC(=O)CNC2CCCC2)cc1NC(=O)c1cnn2cc(-c3cnn4c3CCC4)sc12 [Example 422, N-(5-(2-(cyclopentylamino)acetamido)-2-methylpyridin-3-yl)-2-(5,6-dihydro-4H-pyrrolo[1,2-b]pyrazol-3-yl)pyrazolo[5,1-b]thiazole-7-carboxamide] | 0.2 | 1.1 | 2.6 | 
Cc1ncc(NC(=O)CN2CC3(CCCCO3)C2)cc1NC(=O)c1cnn2cc(-c3cnn4c3OCCC4)sc12 [Example 423, N-(5-(2-(5-oxa-2-azaspiro[3.5]nonan-2-yl)acetamido)-2-methylpyridin-3-yl)-2-(6,7-dihydro-5H-pyrazolo[5,1-b][1,3]oxazin-3-yl)pyrazolo[5,1-b]thiazole-7-carboxamide] | 0.4 | 3.7 | 15.8 | 
Cc1ncc(NC(=O)CN2CC3(CCCCO3)C2)cc1NC(=O)c1cnn2cc(-c3cnn4c3CCC4)sc12 [Example 424, N-(5-(2-(5-oxa-2-azaspiro[3.5]nonan-2-yl)acetamido)-2-methylpyridin-3-yl)-2-(5,6-dihydro-4H-pyrrolo[1,2-b]pyrazol-3-yl)pyrazolo[5,1-b]thiazole-7-carboxamide] | 0.3 | 2.2 | 6.8 | 
Cc1ncc(NC(=O)CN2CC(C)(C)C2)cc1NC(=O)c1cnn2cc(-c3c(C)nn(C4COC4)c3C)sc12 [Example 425, 2-(3,5-dimethyl-1-(oxetan-3-yl)-1H-pyrazol-4-yl)-N-(5-(2-(3,3-dimethylazetidin-1-yl)acetamido)-2-methylpyridin-3-yl)pyrazolo[5,1-b]thiazole-7-carboxamide] | 0.7 | 6.8 |  | 11.7
Cc1ncc(NC(=O)CC2CNC2)cc1NC(=O)c1cnn2cc(-c3cnn4c3CCC4)sc12 [Example 426, N-(5-(2-(azetidin-3-yl)acetamido)-2-methylpyridin-3-yl)-2-(5,6-dihydro-4H-pyrrolo[1,2-b]pyrazol-3-yl)pyrazolo[5,1-b]thiazole-7-carboxamide] | 11.5 | 482 | > 2000 | 
Cc1ncc(NC(=O)CC2CN(C)C2)cc1NC(=O)c1cnn2cc(-c3cnn4c3CCC4)sc12 [Example 427, 2-(5,6-dihydro-4H-pyrrolo[1,2-b]pyrazol-3-yl)-N-(2-methyl-5-(2-(1-methylazetidin-3-yl)acetamido)pyridin-3-yl)pyrazolo[5,1-b]thiazole-7-carboxamide] | 2.1 | 150 | > 2000 | 
Cc1ncc(NC(=O)CN2CC(C)(C)C2)cc1NC(=O)c1cnn2cc(-c3cnn(C(F)F)c3)sc12 [Example 428, 2-(1-(difluoromethyl)-1H-pyrazol-4-yl)-N-(5-(2-(3,3-dimethylazetidin-1-yl)acetamido)-2-methylpyridin-3-yl)pyrazolo[5,1-b]thiazole-7-carboxamide] | 0.8 | 17.3 | 7.9 | 
Cc1ncc(NC(=O)CN2CC(C)(C)C2)cc1NC(=O)c1cnn2cc(-c3cncnc3)sc12 [Example 429, N-(5-(2-(3,3-dimethylazetidin-1-yl)acetamido)-2-methylpyridin-3-yl)-2-(pyrimidin-5-yl)pyrazolo[5,1-b]thiazole-7-carboxamide] | 6.3 | 185 | 30.9 | 
Cc1ncc(NC(=O)CN2CC(C)(C)C2)cc1NC(=O)c1cnn2cc(-c3cn(C)nc3C)sc12 [Example 430, 2-(1,3-Dimethyl-1H-pyrazol-4-yl)-N-(5-(2-(3,3-dimethylazetidin-1-yl)acetamido)-2-methylpyridin-3-yl)pyrazolo[5,1-b]thiazole-7-carboxamide] | 0.2 | 1.8 | 1 | 
Cc1ncc(NC(=O)CN2C[C@@H](C)O[C@H](C)C2)cc1NC(=O)c1cnn2cc(-c3cn(C)nc3C)sc12 [Example 431] | 0.5 | 3.5 | 5 | 
Cc1ncc(NC(=O)CN2CC(C)(C)C2)cc1NC(=O)c1cnn2cc(-c3cnn(C)c3C)sc12 [Example 434, 2-(1,5-Dimethyl-1H-pyrazol-4-yl)-N-(5-(2-(3,3-dimethylazetidin-1-yl)acetamido)-2-methylpyridin-3-yl)pyrazolo[5,1-b]thiazole-7-carboxamide] | 0.2 | 2.2 | 2.4 | 
Cc1ncc(NC(=O)CN2CC(C)(C)C2)cc1NC(=O)c1cnn2cc(-c3cnn(CCS(C)(=O)=O)c3)sc12 [Example 435, N-(5-(2-(3,3-Dimethylazetidin-1-yl)acetamido)-2-methylpyridin-3-yl)-2-(1-(2-(methylsulfonyl)ethyl)-1H-pyrazol-4-yl)pyrazolo[5,1-b]thiazole-7-carboxamide] | 0.6 | 6.8 | 139 | 
CCOc1ncccc1-c1cn2ncc(C(=O)Nc3cc(NC(=O)CN4CC(C)(C)C4)cnc3C)c2s1 [Example 436, N-(5-(2-(3,3-Dimethylazetidin-1-yl)acetamido)-2-methylpyridin-3-yl)-2-(2-ethoxypyridin-3-yl)pyrazolo[5,1-b]thiazole-7-carboxamide] | 0.1 | 0.9 | 1.6 | 
Cc1ncc(NC(=O)CN2CC(C)(C)C2)cc1NC(=O)c1cnn2cc(-c3cccnc3OC(F)(F)F)sc12 [Example 437, N-(5-(2-(3,3-dimethylazetidin-1-yl)acetamido)-2-methylpyridin-3-yl)-2-(2-(trifluoromethoxy)pyridin-3-yl)pyrazolo[5,1-b]thiazole-7-carboxamide] | 0.4 | 4.6 | 6 | 
COC1CN(CC(=O)Nc2cnc(C)c(NC(=O)c3cnn4cc(-c5cn(C)nc5C)sc34)c2)C1 [Example 441, 2-(1,3-Dimethyl-1H-pyrazol-4-yl)-N-(5-(2-(3-methoxyazetidin-1-yl)acetamido)-2-methylpyridin-3-yl)pyrazolo[5,1-b]thiazole-7-carboxamide] | 0.7 | 19.7 | 30.5 | 
COC1(C)CN(CC(=O)Nc2cnc(C)c(NC(=O)c3cnn4cc(-c5cn(C)nc5C)sc34)c2)C1 [Example 442, 2-(1,3-Dimethyl-1H-pyrazol-4-yl)-N-(5-(2-(3-methoxy-3-methylazetidin-1-yl)acetamido)-2-methylpyridin-3-yl)pyrazolo[5,1-b]thiazole-7-carboxamide] | 0.3 | 3.1 | 8.1 | 
